According to patent US20200268703A1, “MEDICINE FOR TREATING ADVANCED OR RECURRENT CANCER PATIENT BEING NON-RESPONSIVE OR NON-TOLERANT TO STANDARD CHEMOTHERAPY AND INCURABLE AND UNRESECTABLE” (HYOGO COLLEGE OF MEDICINE, priority 2017, published 2020):
Several values for one entry are separate records, joined by “and”; a condition that tells them apart may be missing. Identical values can stand only once.

System: advanced or recurrent gastric cancer which is non-responsive or non-tolerant to standard chemotherapy and incurable and unresectable
Assay: Clinical trial of propagermanium in patients with advanced or recurrent gastric cancer (OS, PFS, lung metastasis imaging)
Type: in vivo, human
Conditions: for OS / PFS: 30 mg orally per day
Description: 30 mg of propagermanium [trade name: SEROCION (registered trademark), produced by SANWA KAGAKU KENKYUSHO CO., LTD.] was administered orally in three divided doses per day after meals to 13 patient cases (P-1 to P-13) who were diagnosed as advanced or recurrent gastric cancer which is non-responsive or non-tolerant to standard chemotherapy [gastric cancer treatment guideline fourth edition (edited by Japan Gastric cancer Association, revised in May 2014)] and incurable and unresectable, and a clinical trial was conducted with overall survival (hereinafter also referred to as “OS”) and progression-free survival (hereinafter also referred to as “PFS”) as evaluation items. This clinical trial was conducted under an approval of Ethics Committee of Hyogo College of Medicine (No. 1911). The ECOG performance status (hereinafter also referred to as “PS”), the OS, and the PFS of 13 patient cases are shown in Table 1.
On the other hand, in Hyogo College of Medicine Hospital from 2009 to 2011, in 62 cases which were diagnosed as advanced gastric cancer which is non-responsive or non-tolerant to standard chemotherapy and incurable and unresectable and for which palliative care (Best Supportive Care; hereinafter “BSC”) to reduce pain was provided, the median of OS from the time when a doctor explained BSC to the patient was 22 days.
13 Patient cases in which the propagermanium was administered and 62 patient cases in which the BSC was provided were divided into two groups of (A) 0 and 1 and (B) 2 and 3 according to PS thereof. In the two groups, medians of the OS in the propagermanium administration examples and BSC examples were compared. As a result, in the patient groups whose PS was (A) 0 and 1, the median of OS in the BSC examples was 23.5 days, whereas the median of OS in the propagermanium administration examples was 163 days. The survival time was extended approximately 7 times compared to the BSC examples. […] Accordingly, it was confirmed that the survival days were extended compared to the BSC examples.
In 13 patient cases in which the propagermanium was administered, mean values of OS were compared according to the presence and absence of the peritoneal metastasis (Table 2 and FIG. 4). As a result, the mean value of OS of 8 patient cases with the peritoneal metastasis was 81.1 days, whereas the mean value of OS of 5 patient cases without the peritoneal metastasis was 164.7 days. […] In addition, 13 patient cases in which the propagermanium was administered were divided into two groups of (C) 0 and 1 and (D) 2 and 3 according to the PS thereof. In the two groups, mean values of the OS were compared according to the presence or absence of the peritoneal metastasis (Table 2 and FIG. 4). As a result, in the patient group whose PS was (C) 0 and 1, the mean value of OS of 4 cases with the peritoneal metastasis was 139 days, whereas the mean value of OS of 3 cases without the peritoneal metastasis was 273 days. […] On the other hand, in the patient group whose PS was (D) 2 and 3, the mean value of OS of 4 cases with the peritoneal metastasis was 37.8 days, whereas the mean value of OS of 2 cases without the peritoneal metastasis was 56.3 days.

propagermanium
Median of PFS (13 patient cases): 49 days
Median of OS (13 patient cases, BSC examples (62 cases) 22 days): 73 days
Kaplan Meier survival curves of OS versus BSC (FIG. 1) (13 propagermanium cases versus 62 BSC cases): significant life prolongation effect
Mean value of OS ((C) PS 0 and 1, with peritoneal metastasis, 4 cases): 139 days and 139 (4) days
Mean value of OS ((C) PS 0 and 1, without peritoneal metastasis, 3 cases): 273 days and 273 (3) days
Mean value of OS ((D) PS 2 and 3, with peritoneal metastasis, 4 cases): 37.8 days and 37.8 (4) days
Mean value of OS ((D) PS 2 and 3, without peritoneal metastasis, 2 cases): 56.3 days and 56.3 (2) days
OS without versus with peritoneal metastasis (all 13 propagermanium patient cases): significant life prolongation effect
Mean value of OS (all patients, with peritoneal metastasis, 8 cases): 81.1 days and 81.1 (8) days
Mean value of OS (all patients, without peritoneal metastasis, 5 cases): 164.7 days and 164.7 (5) days
OS (patient P-1, PS 2): 76 days
PFS (patient P-1, PS 2): 56 days
OS (patient P-2, PS 3): 34 days
PFS (patient P-2, PS 3): 3 days
OS (patient P-3, PS 0): 344 days
PFS (patient P-3, PS 0): 336 days
OS (patient P-4, PS 2): 72 days
PFS (patient P-4, PS 2): 28 days
Lesion site of lung (lung metastasis), imaging (FIG. 5) (patient P-5, 357th day after starting administration): scar was formed
PFS (patient P-5, PS 1): 392 days
Lesion site of lung (lung metastasis), imaging (FIG. 5) (patient P-5, from the 35th day after starting administration): reduction was observed
OS (patient P-6, PS 3): 36 days
PFS (patient P-6, PS 3): 22 days
OS (patient P-7, PS 0): 83 days
PFS (patient P-7, PS 0): 49 days
OS (patient P-8, PS 1): 73 days
PFS (patient P-8, PS 1): 73 days
OS (patient P-9, PS 3): 30 days
PFS (patient P-9, PS 3): 21 days
OS (patient P-10, PS 2): 11 days
PFS (patient P-10, PS 2): 7 days
OS (patient P-11, PS 0): 163 days
PFS (patient P-11, PS 0): 159 days
OS (patient P-12, PS 1): 181 days
PFS (patient P-12, PS 1): 178 days
OS (patient P-13, PS 1): 61 days
PFS (patient P-13, PS 1): 36 days
Kaplan Meier survival curve of OS versus BSC (FIG. 2) (patient group PS (A) 0 and 1): significant life prolongation effect
Survival time extension compared to BSC examples (patient group PS (A) 0 and 1): approximately 7 times
Median of OS (patient group PS (A) 0 and 1, BSC examples 23.5 days): 163 days
Median of OS (patient group PS (B) 2 and 3, BSC examples 22 days): 35 days
Kaplan Meier survival curve of OS versus BSC (FIG. 3) (patient group PS (B) 2 and 3, significant difference not confirmed): tendency to prolong life
OS without versus with peritoneal metastasis (patient group PS (C) 0 and 1): significant life prolongation effect
OS without versus with peritoneal metastasis (patient group PS (D) 2 and 3, significant difference not confirmed): tendency to prolong life
